Experimental data from patent US20070142389A1, “PIPERIDINE DERIVATIVES” (PFIZER INC., priority 2005, published 2007).
Like-named read-outs stand apart in the source and are kept apart here.

Experiments:
[1] = target: T1, human norepinephrine transporter (Homo sapiens, UniProt P23975); assay: hNET Receptor Binding ([125I]-RTI-55 displacement, HEK-293 membranes)
T1 construct: expressed in transfected cells; host or cells: HEK-293
Method: (§1) Cell pastes of HEK-293 cells transfected with a human norepinephrine transporter cDNA were prepared. The cell pastes were resuspended in 400 to 700 mL of Krebs-HEPES assay buffer (25 mM HEPES, 122 mM NaCl, 3 mM KCl, 1.2 mM MgSO4, 1.3 mM CaCl2, and 11 mM glucose, pH 7.4) with a Polytron homogenizer at setting 7 for 30 seconds. Aliquots of membranes (5 mg/mL protein) were stored in liquid nitrogen until used.
The binding assay was set up in Beckman deep-well polypropylene plates with a total volume of 250 μL containing: compound of one of the Examples (10^−5M to 10^−12M), cell membranes, and 50 pM [^125I]-RTI-55 (Perkin Elmer, NEX-272; specific activity 2200 Ci/mmol). The reaction was incubated by gentle agitation for 90 minutes at room temperature and was terminated by filtration through Whatman GF/C filter plates using a Brandel 96-well plate harvester. Scintillation fluid (100 μL) was added to each well, and bound [^125I]-RTI-55 was determined using a Wallac Trilux Beta Plate Counter. Test compounds were run in duplicate, and specific binding was defined as the difference between binding in the presence and absence of 10 μM desipramine.
(§2) Excel and GraphPad Prism software were used for data calculation and analysis. IC50 values were converted to Ki values using the Cheng-Prusoff equation.

[2] = target: T2, human serotonin transporter (Homo sapiens, UniProt P31645); assay: hSERT Receptor Binding ([125I]-RTI-55 displacement, HEK-293 membranes)
T2 construct: expressed in transfected cells; host or cells: HEK-293
Method: as §1, with “serotonin” for “norepinephrine”, “Setting” for “setting”, “(about 2.5” for “(5”
Assays were set up in FlashPlates pre-coated with 0.1 % PEI in a total volume of 250 μL containing: compound of one of the Examples (10^−5M to 10^−12M), cell membanes, and 50 pM [^125l]-RTI-55 (Perkin Elmer, NEX-272; specific activity 2200 Ci/mmol). The reaction was incubated and gently agitated for 90 minutes at room temperature, and terminated by removal of assay volume. Plates were covered, and bound [^125I]-RTI-55 was determined using a Wallac Trilux Beta Plate Counter. Test compounds were run in duplicate, and specific binding was defined as the difference between binding in the presence and absence of 10 μM citalopram.
as §2

[3] = hNET, HEK-293 cell membranes, 50 pM [125I]-RTI-55, Ki from IC50 by Cheng-Prusoff, read-out: NET Ki
[4] = hSERT, HEK-293 cell membranes, 50 pM [125I]-RTI-55, Ki from IC50 by Cheng-Prusoff, read-out: SERT Ki

T1 sequence (P23975 whole entry): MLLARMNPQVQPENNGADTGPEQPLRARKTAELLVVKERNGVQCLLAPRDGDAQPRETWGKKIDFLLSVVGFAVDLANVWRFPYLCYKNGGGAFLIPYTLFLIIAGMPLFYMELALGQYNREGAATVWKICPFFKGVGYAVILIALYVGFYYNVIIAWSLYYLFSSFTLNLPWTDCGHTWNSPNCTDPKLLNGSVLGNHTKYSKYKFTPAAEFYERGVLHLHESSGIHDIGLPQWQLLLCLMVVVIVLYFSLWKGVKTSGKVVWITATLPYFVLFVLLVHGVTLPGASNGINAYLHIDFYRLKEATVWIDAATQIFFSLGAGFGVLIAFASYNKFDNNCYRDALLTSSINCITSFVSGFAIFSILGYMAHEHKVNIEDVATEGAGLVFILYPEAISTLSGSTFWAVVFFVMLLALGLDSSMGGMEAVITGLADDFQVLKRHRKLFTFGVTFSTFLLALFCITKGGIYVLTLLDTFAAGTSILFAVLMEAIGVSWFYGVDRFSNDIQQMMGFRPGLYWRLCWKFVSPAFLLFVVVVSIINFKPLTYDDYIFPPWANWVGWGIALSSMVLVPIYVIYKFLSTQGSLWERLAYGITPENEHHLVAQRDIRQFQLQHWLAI
T2 sequence (P31645 whole entry): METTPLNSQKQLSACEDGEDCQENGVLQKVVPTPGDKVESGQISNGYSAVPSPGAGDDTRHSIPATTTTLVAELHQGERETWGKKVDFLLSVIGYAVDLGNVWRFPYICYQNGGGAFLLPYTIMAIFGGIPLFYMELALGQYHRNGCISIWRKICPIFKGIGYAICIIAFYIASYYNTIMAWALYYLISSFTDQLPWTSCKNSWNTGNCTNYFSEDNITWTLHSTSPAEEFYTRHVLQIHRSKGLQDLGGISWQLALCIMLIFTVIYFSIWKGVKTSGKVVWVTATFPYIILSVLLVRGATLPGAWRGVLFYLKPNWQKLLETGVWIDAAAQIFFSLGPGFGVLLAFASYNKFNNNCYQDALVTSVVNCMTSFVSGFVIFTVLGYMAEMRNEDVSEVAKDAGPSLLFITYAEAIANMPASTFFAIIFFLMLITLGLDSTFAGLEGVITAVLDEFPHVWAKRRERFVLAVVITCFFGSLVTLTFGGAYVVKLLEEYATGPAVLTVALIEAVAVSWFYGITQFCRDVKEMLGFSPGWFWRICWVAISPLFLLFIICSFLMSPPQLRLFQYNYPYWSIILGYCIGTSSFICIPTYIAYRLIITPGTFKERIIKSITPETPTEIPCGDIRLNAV

SMILES	Ki [1] [nM]	Ki [2] [nM]	Ki [1, 3] [nM]	Ki [2, 4] [nM]
CCOc1ncccc1OC[C@@H]1CNCC[C@H]1c1ccc(F)cc1 (racemic) [Example 58, (±)-trans-2-Ethoxy-3-[4-(4-fluoro-phenyl)-piperidin-3-ylmethoxy]-pyridine]	6.25	5.97		
CCOc1ncccc1OC[C@@H]1CNCC[C@H]1c1cccc(F)c1 (racemic) [Example 59, (±)-trans-2-Ethoxy-3-[4-(3-fluoro-phenyl)-piperidin-3-ylmethoxy]-pyridine]			4.38	10.7
CCCCc1ncccc1OC[C@@H]1CNCC[C@H]1c1ccccc1 (racemic) [Example 61, (±)-trans-2-Butyl-3-(4-phenyl-piperidin-3-ylmethoxy)-pyridine]			7.48	23.8
CC(C)Cc1ncccc1OC[C@@H]1CNCC[C@H]1c1ccccc1 (racemic) [Example 62, (±)-trans-2-lsobutyl-3-(4-phenyl-piperidin-3-ylmethoxy)-pyridine]			46.6	59.2
c1ccc(-c2ccccc2OC[C@@H]2CNCC[C@H]2c2ccccc2)cc1 (relative stereo) [Example 47, trans-3-(Biphenyl-2-yloxymethyl)-4-phenyl-piperidine]			51.5	1050
CCOc1ccccc1OC[C@@H]1CNCC[C@H]1c1ccccc1 (relative stereo) [Example 48, trans-3-(2-Ethoxy-phenoxymethyl)-4-phenyl-piperidine]			2.1	
CC(C)c1ccccc1OC[C@@H]1CNCC[C@H]1c1ccccc1 (relative stereo) [Example 49, trans-3-(2-lsopropyl-phenoxymethyl)-4-phenyl-piperidine]			19.5	83.5
CCCc1ccccc1OC[C@@H]1CNCC[C@H]1c1ccccc1 (relative stereo) [Example 50, trans-4-Phenyl-3-(2-propyl-phenoxymethyl)-piperidine]			16	33
c1ccc([C@@H]2CCNC[C@H]2COc2ccccc2C2CCCCC2)cc1 (relative stereo) [Example 51, trans-3-(2-Cyclohexyl-phenoxymethyl)-4-phenyl-piperidine]			75	174
CCOc1ccccc1OC[C@@H]1CNCC[C@@H]1c1ccccc1 (relative stereo) [Example 52, cis-3-(2-Ethoxy-phenoxymethyl)-4-phenyl-piperidine]			35	96
CCCc1ccccc1OC[C@@H]1CNCC[C@@H]1c1ccccc1 (relative stereo) [Example 53, cis-4-Phenyl-3-(2-propyl-phenoxymethyl)-piperidine]			138	267
CC(C)c1ccccc1OC[C@@H]1CNCC[C@@H]1c1ccccc1 (relative stereo) [Example 54, cis-3-(2-lsopropyl-phenoxymethyl)-4-phenyl-piperidine]			36.5	208
c1ccc(-c2ccccc2OC[C@@H]2CNCC[C@@H]2c2ccccc2)cc1 (relative stereo) [Example 55, cis-3-(Biphenyl-2-yloxymethyl)-4-phenyl-piperidine]			215	1050
c1ccc([C@H]2CCNC[C@H]2COc2ccccc2C2CCCCC2)cc1 (relative stereo) [Example 56, cis-3-(2-Cyclohexyl-phenoxymethyl)-4-phenyl-piperidine]			317	542
CCOc1ncccc1OC[C@@H]1CNCC[C@@H]1c1ccc(F)cc1 (single isomer, unassigned) [Example 57, (+)-cis-2-Ethoxy-3-[4-(4-fluoro-phenyl)-piperidin-3-ylmethoxy]-pyridine]	193	34.8		
CCOc1ccccc1OC[C@H]1CNCC[C@@H]1c1ccccc1 [Example 3, (3R,4S)-3-(2-Ethoxy-phenoxymethyl)-4-phenyl-piperidine]			1260	18.8

SMILES	Ki [1] [nM]	Ki [2] [nM]	Ki [1, 3] [nM]	Ki [2, 4] [nM]
FC(F)(F)c1ccc(OC[C@H]2CNCC[C@@H]2c2ccccc2)nc1 [Example 4, (3R,4S)-2-(4-Phenyl-piperidin-3-ylmethoxy)-5-trifluoromethyl-pyridine]			1870	15.3
Cc1ccc(OC[C@H]2CNCC[C@@H]2c2ccccc2)nc1 [Example 5, (3R,4S)-5-Methyl-2-(4-phenyl-piperidin-3-ylmethoxy)-pyridine]			2620	2.29
COc1ncccc1OC[C@H]1CNCC[C@@H]1c1ccccc1 [Example 6, (3R,4S)-2-Methoxy-3-(4-phenyl-piperidin-3-ylmethoxy)-pyridine]			3480	0.52
CCCOc1ncccc1OC[C@H]1CNCC[C@@H]1c1ccccc1 [Example 8, (3R,4S)-3-(4-Phenyl-piperidin-3-ylmethoxy)-2-propoxy-pyridine]			1330	17
COCCOc1ncccc1OC[C@H]1CNCC[C@@H]1c1ccccc1 [Example 10, (3R,4S)-2-(2-Methoxy-ethoxy)-3-(4-phenyl-piperidin-3-ylmethoxy)-pyridine]			6260	18.5
Cn1nc(OC[C@H]2CNCC[C@@H]2c2ccccc2)cc1C(F)(F)F [Example 13, (3R,4S)-3-(1-Methyl-5-trifluoromethyl-1 H-pyrazol-3-yloxymethyl)-4-phenyl-piperidine]			612	2.69
CC(C)COc1ncccc1OC[C@@H]1CNCC[C@H]1c1ccccc1 [Example 15, (3S,4R)-2-lsobutoxy-3-(4-phenyl-piperidin-3-ylmethoxy)-pyridine]			4.9	20.7
c1ccc([C@@H]2CCNC[C@H]2COc2cccnc2OC2CCOCC2)cc1 [Example 16, (3S,4R)-3-(4-Phenyl-piperidin-3-ylmethoxy)-2-(tetrahydro-pyran-4-yloxy)-pyridine]			293	680
CCOc1ccccc1OC[C@@H]1CNCC[C@H]1c1ccccc1 [Example 18, (3S,4R)-3-(2-Ethoxy-phenoxymethyl)-4-phenyl-piperidine]			1.75	
FC(F)(F)c1ccc(OC[C@@H]2CNCC[C@H]2c2ccccc2)nc1 [Example 19, (3S,4R)-2-(4-Phenyl-piperidin-3-ylmethoxy)-5-trifluoromethyl-pyridine]			144	29.1
Cc1ccc(OC[C@@H]2CNCC[C@H]2c2ccccc2)nc1 [Example 20, (3S,4R)-5-Methyl-2-(4-phenyl-piperidin-3-ylmethoxy)-pyridine]			157	3.14
Cn1nc(C(F)(F)F)cc1OC[C@@H]1CNCC[C@H]1c1ccccc1 [Example 21, (3S,4R)-3-(2-Methyl-5-trifluoromethyl-2H-pyrazol-3-yloxymethyl)-4-phenyl-piperidine]			1260	63.8
Cc1ccc(OC[C@@H]2CNCC[C@H]2c2ccccc2)cn1 [Example 22, (3S,4R)-2-Methyl-5-(4-phenyl-piperidin-3-ylmethoxy)-pyridine]			263	3.47
COCc1cc(OC[C@@H]2CNCC[C@H]2c2ccccc2)[nH]n1 [Example 23, (3S,4R)-3-(5-Methoxymethyl-2H-pyrazol-3-yloxymethyl)-4-phenyl-piperidine]			1520	1390
Cn1nc(OC[C@@H]2CNCC[C@H]2c2ccccc2)cc1C(F)(F)F [Example 24, (3S,4R)-3-(1-Methyl-5-trifluoromethyl-1 H-pyrazol-3-yloxymethyl)-4-phenyl-piperidine]			519	87.7
